Laboratory results published in patent US8377945B2, “Small molecule inhibitors of spleen tyrosine kinase (SYK)” (Rigel Pharmaceuticals Inc., priority 2009, dated 2013).

How the values were obtained:
[1] = test system: Human mast cells (CHMC cells); test: Tryptase release assay (mast cell degranulation induced by anti-IgG FcγR cross-linking); assay type: cell-based; settings: IC50 of tryptase release from human mast cells after anti-IgG stimulation, read-out: LD Tryptase
Method: Compounds were assayed for inhibition of mast cell activation induced by FcγR cross-linking by measuring the activity of tryptase released upon degranulation as follows:
Human mast cells were cultured and differentiated from […] progenitor cell as described in U.S. Patent Publication No. 2005-234049, incorporated herein by reference. For example, 65 μl of various concentrations of the compound to be assayed were prepared in MT (137 mM NaCl, 2.7 mM KCl, 1.8 mM CaCl2, 1.0 mM MgCl2, 5.6 mM Glucose, 20 mM Hepes (pH 7.4), 0.1% Bovine Serum Albumin, (Sigma A4503)) containing 2% MeOH and 1% DMSO, or control buffer were added to duplicate 96-well V-bottom plates. Pelleted and resuspended (in warm MT) CHMC cells (65 μl) were added to each 96-well plate, mixed and incubated for 1 hour at 37° C. 25 μl of 6× anti-IgG Rabbit anti-human IgG, Affinity purified (Bethyl Laboratories Cat No. A80-105A3) final concentration 1 μg/ml, was added to the test wells. MT (25 μl) was added to control wells. After a 60-minute incubation at 37° C., cells and cell debris were pelleted by centrifugation at 1000 rpm for 10 min and tryptase and leukotriene C4 levels were measured.
To measure tryptase levels, 25 μl of supernatant from each well was transferred to a fresh 96-well black bottom plate, to which 100 μl of fresh tryptase substrate solution [(Z-Ala-Lys-Arg-AMC2TFA; Enzyme Systems Products, #AMC-246)] 1:2000 in tryptase assay buffer [0.1 M Hepes (pH 7.5), 10% w/v Glycerol, 10 μM Heparin (Sigma H-4898) 0.01% NaN3] was added. After 30 minute incubation at room temperature, the optical density of the plates is measured at 355 nm/460 nm on a spectrophotometric plate reader. Table 2 provides the IC50 values.

Syk kinase = target: T1, Syk kinase (Homo sapiens, UniProt P43405); test: ELISA-based Syk kinase assay (phosphorylation of HS1 peptide substrate by isolated Syk kinase); assay type: biochemical; settings: IC50 of Syk kinase inhibition; 2 μM ATP, 2 μM peptide substrate
T1 construct: purchased Millipore 14-314
Method: Compounds were tested for the ability to inhibit Syk kinase catalyzed phosphorylation of a peptide substrate in an assay with isolated Syk kinase.
An assay was carried out in a Costar white 96 well plate (Fisher Scientific, Cat No. 07-200-591) coated overnight with 0.01 mg/ml Neutravidin (Pierce, 100 μl/well) at 4° C. Neutravidin pre-coated 96 well plates were blocked with 2% BSA in PBST buffer for at least 1 hour before starting the assay at room temperature. Serially diluted compound stock solution containing a subject compound was prepared separately in DMSO solution starting from 300 μM and 2 μl of this diluted compound (3% DMSO final concentration) was added directly to neutravidin coated assay plate containing 55.5 μl/well of kinase reaction buffer composed of 20 mM HEPES, pH 7.4, 5 mM MgCl2, 2 mM MnCl2, 1 mM DTT, 0.01% Tween 20 pre-mixed with ATP and kinase substrate (HS1 peptide). Reaction was initiated by adding of 2.5 μl/well Syk kinase (Millipore, Cat No. 14-314) resulting in a final reaction volume of 60 μl and then the reaction was allowed to continue for 30 minutes at room temperature. Final enzyme reaction conditions were 20 mM HEPES, pH 7.4, 5 mM MgCl2, 2 mM MnCl2, 1 mM DTT, 0.01% Tween 20, 0.25 ng Syk, 2 μM ATP, 2 μM peptide substrate (Biotin-EQEDEPEGDYEEVLE-CONH2, SynPep Corporation). After completing the reaction, assay plate was washed three times with PBST and incubated for 1 hour at room temperature with 100 μl/well of phosphopeptide detection antibody solution prepared by mixing 1-1000 diluted mouse anti-pTyr monoclonal antibody (Cell Signal Technology, Cat No. 9411) and 1-1000 diluted goat HRP-conjugated anti-mouse IgG (Jackson Immunoresearch, Cat. No. 115-035-003). Before developing the plate with supersignal ELISA pico chemiluminescent substrate (Pierce), plate was washed three times again with PBST and were read on a SpectraMax M5 microplate reader (Moleculear Devices).

IC50 [1]	IC50 (Syk kinase)	Structure (SMILES)
< 10 µM	0.51 to 2.99 µM	COc1ccc(Nc2c(-c3ccc(OCCN4CCOCC4)cc3)[nH]c3c(C#N)cnn23)cc1OC [Compound 124]
< 10 µM	0.51 to 2.99 µM	COc1ccc(Nc2c(-c3ccc(OC)c(OCC(N)=O)c3)[nH]c3c(C#N)cnn23)cc1OC [Compound 125]
< 10 µM	< 0.5 µM	COc1ccc(Nc2c(-c3cc(OC)c(OC)c(OC)c3)[nH]c3c(C#N)cnn23)cc1F [Compound 127]
< 10 µM	0.51 to 2.99 µM	COc1cc(Nc2c(-c3cc(OC)c(OC)c(OC)c3)[nH]c3c(C#N)cnn23)ccc1Cl [Compound 132]
< 10 µM	0.51 to 2.99 µM	COc1cc(-c2[nH]c3c(C#N)cnn3c2Nc2ccc(F)c(OC(C)C)c2)cc(OC)c1OC [Compound 133]
< 10 µM	< 0.5 µM	COc1ccc(Nc2c(-c3ccc(OCC(N)=O)c(OC)c3)[nH]c3c(C#N)cnn23)cc1OC [Compound 135]
< 10 µM	0.51 to 2.99 µM	COc1ccc(Nc2c(-c3cc(C)c(OC)c(C)c3)[nH]c3c(C#N)cnn23)cc1OC [Compound 136]
< 10 µM	< 0.5 µM	COc1cc(-c2[nH]c3c(C#N)cnn3c2Nc2ccc3c(c2)NC(=O)CO3)cc(OC)c1OC [Compound 137]
< 10 µM	0.51 to 2.99 µM	COc1cc(Nc2c(-c3ccc(OC)c(OCC(N)=O)c3)[nH]c3c(C#N)cnn23)ccc1F [Compound 138]
< 10 µM	< 0.5 µM	COc1cc(Nc2c(-c3ccc(OCC(N)=O)c(OC)c3)[nH]c3c(C#N)cnn23)ccc1F [Compound 139]
< 10 µM	< 0.5 µM	COc1ccc(Nc2c(-c3ccc(OCC(=O)NC4CC4)c(OC)c3)[nH]c3c(C#N)cnn23)cc1OC [Compound 140]
< 10 µM	0.51 to 2.99 µM	COc1cc(-c2[nH]c3c(C#N)cnn3c2Nc2ccc(OC(C)C)c(Cl)c2)cc(OC)c1OC [Compound 141]
< 10 µM	< 0.5 µM	COc1cc(Nc2c(-c3cc(OC)c(OC)c(OC)c3)[nH]c3c(C#N)cnn23)cc(OC)c1 [Compound 142]
< 10 µM	< 0.5 µM	COc1cc(-c2[nH]c3c(C#N)cnn3c2Nc2cc(F)c(OC)c(F)c2)cc(OC)c1OC [Compound 143]
< 10 µM	0.51 to 2.99 µM	CCOc1cc(Nc2c(-c3cc(OC)c(OC)c(OC)c3)[nH]c3c(C#N)cnn23)ccc1F [Compound 144]
< 10 µM	0.51 to 2.99 µM	COc1cc(-c2[nH]c3c(C#N)cnn3c2Nc2ccc(F)c(OC3CCCC3)c2)cc(OC)c1OC [Compound 145]
11 to 100 µM	0.51 to 2.99 µM	COc1cc(-c2[nH]c3c(C#N)cnn3c2Nc2cccc(CNC(=O)c3cccnc3)c2)cc(OC)c1OC [Compound 146]
< 10 µM	< 0.5 µM	COc1cc(-c2[nH]c3c(C#N)cnn3c2Nc2cccc(CNC(=O)c3ccccn3)c2)cc(OC)c1OC [Compound 147]
101 to 5000 µM	< 0.5 µM	COc1cc(-c2[nH]c3c(C#N)cnn3c2Nc2cccc(CNC(=O)c3ccncc3)c2)cc(OC)c1OC [Compound 148]
< 10 µM	0.51 to 2.99 µM	COc1cc(-c2[nH]c3c(C#N)cnn3c2Nc2ccc(CNC(=O)c3ccccn3)cc2)cc(OC)c1OC [Compound 149]
11 to 100 µM	0.51 to 2.99 µM	COc1cc(-c2[nH]c3c(C#N)cnn3c2Nc2ccc(CNC(=O)c3ccncc3)cc2)cc(OC)c1OC [Compound 150]
> 5000 µM	0.51 to 2.99 µM	COc1cc(-c2[nH]c3c(C#N)cnn3c2Nc2ccc(CNC(=O)c3ccc(C#N)nc3)cc2)cc(OC)c1OC [Compound 151]
> 5000 µM	< 0.5 µM	COc1cc(-c2[nH]c3c(C#N)cnn3c2Nc2ccc(CNC(=O)c3cccnc3C)cc2)cc(OC)c1OC [Compound 152]
< 10 µM	< 0.5 µM	COc1cc(-c2[nH]c3c(C#N)cnn3c2Nc2ccc(CNC(=O)c3cccnc3OC)cc2)cc(OC)c1OC [Compound 153]
11 to 100 µM	0.51 to 2.99 µM	COc1cc(-c2[nH]c3c(C#N)cnn3c2Nc2ccc(CNC(=O)c3ccc(C)nc3)cc2)cc(OC)c1OC [Compound 154]
< 10 µM	0.51 to 2.99 µM	COc1cc(-c2[nH]c3c(C#N)cnn3c2Nc2ccc(CNC(=O)c3cnccc3C(F)(F)F)cc2)cc(OC)c1OC [Compound 155]
< 10 µM	0.51 to 2.99 µM	COc1cc(-c2[nH]c3c(C#N)cnn3c2Nc2ccc(CNC(=O)c3ccc(C(F)(F)F)nc3)cc2)cc(OC)c1OC [Compound 156]
11 to 100 µM	< 0.5 µM	COc1cc(-c2[nH]c3c(C#N)cnn3c2Nc2ccc(SC)c(F)c2)cc(OC)c1OC [Compound 157]
